This is an account of results in US6608061B2, “Bisaryl compound and medicament for cancer treatment comprising the same” (Kyoma Hakko Kogyo Co., Ltd., priority 1997, dated 2003).

Experiment [1] has as its target T1, human RNR (purified R1 and R2 subunits) (Homo sapiens, UniProt P23921+P31350).
T1 construct: made in house; host or cells: Escherichia coli BL21(λDE3)pLysS, plasmids pETR1 and pETR2 (pET3a backbone)
T1 sequence (P23921 1-792): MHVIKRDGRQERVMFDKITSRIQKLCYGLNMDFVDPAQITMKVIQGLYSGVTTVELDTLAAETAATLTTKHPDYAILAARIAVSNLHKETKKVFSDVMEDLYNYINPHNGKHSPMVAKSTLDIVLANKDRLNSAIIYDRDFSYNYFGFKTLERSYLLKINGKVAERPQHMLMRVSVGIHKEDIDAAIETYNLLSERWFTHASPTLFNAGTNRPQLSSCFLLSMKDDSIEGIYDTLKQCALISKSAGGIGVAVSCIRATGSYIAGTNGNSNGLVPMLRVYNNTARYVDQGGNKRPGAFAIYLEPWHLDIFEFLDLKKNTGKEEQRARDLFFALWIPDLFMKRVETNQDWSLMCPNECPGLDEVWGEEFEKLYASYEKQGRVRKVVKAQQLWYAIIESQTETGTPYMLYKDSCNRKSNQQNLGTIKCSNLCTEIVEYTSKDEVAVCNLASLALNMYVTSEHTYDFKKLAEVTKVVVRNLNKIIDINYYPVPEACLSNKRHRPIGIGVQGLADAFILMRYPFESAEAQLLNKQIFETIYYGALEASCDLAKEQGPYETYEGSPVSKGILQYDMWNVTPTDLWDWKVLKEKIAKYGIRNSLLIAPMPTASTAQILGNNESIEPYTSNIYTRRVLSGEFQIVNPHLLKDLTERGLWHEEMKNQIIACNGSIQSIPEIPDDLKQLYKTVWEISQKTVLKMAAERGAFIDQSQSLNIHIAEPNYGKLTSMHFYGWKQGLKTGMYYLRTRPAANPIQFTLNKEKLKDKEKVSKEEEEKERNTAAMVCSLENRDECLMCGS
T1 sequence (P31350 1-389): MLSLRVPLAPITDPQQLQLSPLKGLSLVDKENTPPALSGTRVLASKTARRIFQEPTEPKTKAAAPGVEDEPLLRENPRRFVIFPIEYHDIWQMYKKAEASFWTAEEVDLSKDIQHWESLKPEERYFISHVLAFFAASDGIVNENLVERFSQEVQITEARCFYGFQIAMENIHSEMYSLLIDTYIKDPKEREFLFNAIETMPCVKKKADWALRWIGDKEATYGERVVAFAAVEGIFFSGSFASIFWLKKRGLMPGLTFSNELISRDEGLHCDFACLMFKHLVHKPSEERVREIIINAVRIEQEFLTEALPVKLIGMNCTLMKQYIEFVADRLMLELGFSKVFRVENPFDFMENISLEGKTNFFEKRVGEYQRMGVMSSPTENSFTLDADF
The experiment is described as follows: In vitro measurement of human RNR inhibitory activity (conversion of CDP to dCDP, HPLC). The class given is biochemical. Conditions: 100 μM CDP, 37° C., 30 minutes, read-out: RNR Inhibition (IC50).

The subject of another experiment is HeLa S3 cells. The experiment is described as follows: Test for growth inhibition of HeLa S3 cells. The class given is cell-based. Conditions: Homo sapiens, HeLa S3, 72 h, HeLa S3 cells, 72 hours with test compound, Cell Proliferation Kit II; read-out: Cell growth inhibition (IC50). How it is done:
Test for Growth Inhibition of Hela S3 Cells
HeLa S3 cells prepared at 1×10^4 cells/ml in MEM culture medium containing 10% fetal bovine serum and 2 mM glutamine were added to each well of a 96-well microtiter plate (0.1 ml for each well). The cells were cultured at 37° C. in a CO2 incubator for 24 hours, and then 0.05 ml of test compound appropriately diluted with the above medium was added to each well, and then the mixture was cultured at 37° C. in a CO2 incubator for 72 hours. After the culture supernatant was removed, each well was washed with 0.1 ml of PBS buffer twice, and 0.1 ml of the aforementioned medium was added to each well again.
Cell Proliferation Kit II (Boehringer Mennheim) was used for measurement of cell number in each well. After a coloring reaction reagent was added, the plate was warmed to 37° C. in a CO2 incubator for 3 hours. Then, absorbances at 490 nm and 655 nm were measured by a microplate reader, and a value (difference of absorbance) was calculated for each well by subtracting the absorbance at […] from the absorbance at 490 nm. By comparing the differences of absorbance for cells without treatment and cells treated with a test compound at a known concentration, a concentration of test compound which inhibited the cell growth by 50% was calculated, and the value obtained was determined as IC50. The values of RNR inhibitory activity obtained in Example 8, and the values of cell growth inhibitory activity obtained in Example 9 are shown in the following tables (the compound numbers used in the tables correspond to the compound numbers shown in the aforementioned tables).

As to `O=C(N1CCCCC1)N(CCSc1ccc(O)cc1)CCSc1ccc(O)cc1` [Compound 125], the IC50 (usually the concentration that gives 50% inhibition) in experiment [1] stood at 910 nM; in the experiment on HeLa S3 cells, 4.55 µM.
Take `Oc1ccc(SSc2ccc(O)cc2)cc1` [Compound 131]: the IC50 amounted to 6590 nM in experiment [1] and 128 µM with HeLa S3 cells.
For `Oc1ccc(SCSc2ccc(O)cc2)cc1` [Compound 132], in that order: 3500 nM and 45.6 µM.
In the same order, the values of `Oc1ccc(SCCSc2ccc(O)cc2)cc1` [Compound 133] are 2270 nM and 14.5 µM.
For `Oc1ccc(SCCCSc2ccc(O)cc2)cc1` [Compound 134], in that order: 680 nM and 2.05 µM.
Take `Oc1ccc(SCCCCSc2ccc(O)cc2)cc1` [Compound 135]: the IC50 in experiment [1] is 430 nM; with HeLa S3 cells, 6.02 µM.
For `Oc1ccc(SCCCCCSc2ccc(O)cc2)cc1` [Compound 136], in that order: 690 nM and 9.14 µM.
In the same order, the values of `Oc1ccc(SCCCCCCSc2ccc(O)cc2)cc1` [Compound 137] are 870 nM and 5.45 µM.
For `Oc1ccc(SCCCCCCCSc2ccc(O)cc2)cc1` [Compound 138], in that order: 2290 nM and 18.3 µM.
Consider `CC(CSc1ccc(O)cc1)Sc1ccc(O)cc1` (stereo not drawn) [Compound 152], for which the IC50 in experiment [1] was 5140 nM; in the experiment with HeLa S3 cells it was 18 µM.
In the same order, the values of `Oc1ccc(SCC(O)CSc2ccc(O)cc2)cc1` [Compound 156] are 2270 nM and 5.45 µM.
For `Oc1ccc(SCSCSc2ccc(O)cc2)cc1` [Compound 158], in that order: 1420 nM and 12.7 µM.
In the same order, the values of `Oc1ccc(SCC=CCSc2ccc(O)cc2)cc1` [Compound 159] are 690 nM and 6.89 µM.
Regarding `Oc1ccc(SCC#CCSc2ccc(O)cc2)cc1` [Compound 160], the IC50 in experiment [1] is 950 nM; with HeLa S3 cells, 20.1 µM.
`Oc1ccc(SCc2ccccc2CSc2ccc(O)cc2)cc1` [Compound 161]: the results for the IC50 (in experiment [1]; in the experiment with HeLa S3 cells) were 1130 nM and 34.2 µM, respectively.
For `Oc1ccc(SCCOCOCCSc2ccc(O)cc2)cc1` [Compound 162], in that order: 1700 nM and 3.7 µM.
In the same order, the values of `Oc1ccc(SCCOCCOCCSc2ccc(O)cc2)cc1` [Compound 163] are 2100 nM and 5.17 µM.
In the same order, the values of `Oc1ccc(SCC(O)COCCOCC(O)CSc2ccc(O)cc2)cc1` (stereo not drawn) [Compound 166] are 3090 nM and 31.2 µM.
Take `Oc1ccc(SCCOCCOCCOCCSc2ccc(O)cc2)cc1` [Compound 171]: the IC50 was 8010 nM in experiment [1] and 30 µM with HeLa S3 cells.
Turning to `Oc1ccc(SCCOCCOCCOCCOCCSc2ccc(O)cc2)cc1` [Compound 172], the IC50 in experiment [1] came to 2640 nM; in the experiment with HeLa S3 cells it was 19.5 µM.
For `Oc1ccc(SCCOCCOCCOCCOCCOCCSc2ccc(O)cc2)cc1` [Compound 173], in that order: 3630 nM and 12.9 µM.
Consider `CC1(C)OC(CSc2ccc(O)cc2)C(CSc2ccc(O)cc2)O1` (stereo not drawn) [Compound 183], for which the IC50 in experiment [1] was 420 nM; in the experiment on HeLa S3 cells, 10.4 µM.
In the case of `Oc1ccc(SCCC(O)CSc2ccc(O)cc2)cc1` (stereo not drawn) [Compound 184], the IC50 in experiment [1] was determined as 300 nM; in the experiment with HeLa S3 cells, 2.46 µM.
For `O=C(CSc1ccc(O)cc1)C(=O)CSc1ccc(O)cc1` [Compound 186], in that order: 11900 nM and 56 µM.
Consider `O=C(NCCCSc1ccc(O)cc1)C1C2C=CC(C2)C1C(=O)NCCCSc1ccc(O)cc1` (stereo not drawn) [Compound 191], for which the IC50 in experiment [1] was determined as 1360 nM; in the experiment on HeLa S3 cells it was 4.78 µM.
In the same order, the values of `O=C(NCCCSc1ccc(O)cc1)C1(C(=O)NCCCSc2ccc(O)cc2)CCCC1` [Compound 192] are 2850 nM and 4.51 µM.
As to `Oc1ccc(SCCN(CCSc2ccc(O)cc2)CCC2OCCCO2)cc1` [Compound 194], the figures for the IC50 (in experiment [1]; in the experiment on HeLa S3 cells) were 840 nM and 11.7 µM, respectively.
With `CS(=O)(=O)NCCN(CCSc1ccc(O)cc1)CCSc1ccc(O)cc1` [Compound 195], the IC50 in experiment [1] came out at 550 nM; with HeLa S3 cells, 3.16 µM.
In the same order, the values of `Oc1ccc(SCCN(CCSc2ccc(O)cc2)Cc2c[nH]cn2)cc1` [Compound 196] are 1520 nM and 7.08 µM.
In the same order, the values of `COCCOCCOCCN(CCSc1ccc(O)cc1)CCSc1ccc(O)cc1` [Compound 197] are 3240 nM and 4.06 µM.
For `COCCOCCN(CCSc1ccc(O)cc1)CCSc1ccc(O)cc1` [Compound 198], in that order: 4860 nM and 4.85 µM.
With `OCCOCCN(CCSc1ccc(O)cc1)CCSc1ccc(O)cc1` [Compound 199], the IC50 came to 3990 nM in experiment [1] and 5.14 µM in the experiment with HeLa S3 cells.
In the same order, the values of `CC1(C)OCC(CN(CCSc2ccc(O)cc2)CCSc2ccc(O)cc2)O1` (stereo not drawn) [Compound 200] are 4200 nM and 4.13 µM.
In the same order, the values of `OCC(O)CN(CCSc1ccc(O)cc1)CCSc1ccc(O)cc1` (stereo not drawn) [Compound 201] are 2490 nM and 4.29 µM.
For `N=C(N)NCCN(CCSc1ccc(O)cc1)CCSc1ccc(O)cc1` [Compound 202], in that order: 1870 nM and 42.6 µM.
Turning to `O=C(CN(CCSc1ccc(O)cc1)CCSc1ccc(O)cc1)N1CCCCC1` [Compound 203], the IC50 in experiment [1] is 3180 nM; in the experiment with HeLa S3 cells, 3.45 µM.
For `N#CCCN(CCC#N)C(=O)CN(CCSc1ccc(O)cc1)CCSc1ccc(O)cc1` [Compound 204], in that order: 1500 nM and 3.38 µM.
For `O=C(CN(CCSc1ccc(O)cc1)CCSc1ccc(O)cc1)NC(CO)CO` [Compound 205], in that order: 1190 nM and 7.32 µM.
In the same order, the values of `O=C(CN(CCSc1ccc(O)cc1)CCSc1ccc(O)cc1)N1CCC[C@H]1CO` [Compound 206] are 1130 nM and 3.31 µM.
In the case of `O=C(CN(CCSc1ccc(O)cc1)CCSc1ccc(O)cc1)NCCO` [Compound 207], the IC50 came to 870 nM in experiment [1] and 1.71 µM in the experiment on HeLa S3 cells.
In the same order, the values of `O=C(CN(CCSc1ccc(O)cc1)CCSc1ccc(O)cc1)N(CCO)CCO` [Compound 208] are 3460 nM and 5.93 µM.
For `O=C(CN(CCSc1ccc(O)cc1)CCSc1ccc(O)cc1)Nc1nccs1` [Compound 210], in that order: 5910 nM and 2.82 µM.
For `CC[N+](CC)(CC)CCCN(CCSc1ccc(O)cc1)CCSc1ccc(O)cc1` [Compound 213], in that order: 2060 nM and 180 µM.
Regarding `OC[C@H]1OC(N(CCSc2ccc(O)cc2)CCSc2ccc(O)cc2)[C@@H](O)[C@@H](O)[C@@H]1O` (stereo partly drawn) [Compound 214], the IC50 in experiment [1] was found to be 2690 nM; in the experiment with HeLa S3 cells, 7.73 µM.
As to `OC[C@H]1OC(N(CCSc2ccc(O)cc2)CCSc2ccc(O)cc2)[C@H](O)[C@@H](O)[C@@H]1O` (stereo partly drawn) [Compound 215], the figures for the IC50 (in experiment [1]; in the experiment with HeLa S3 cells) were 3680 nM and 12.7 µM, respectively.
